US20250195521A1 (Revolution Medicines, Inc., priority 2020, published 2025)
pEC50, pIC50: −log10 of the molar value. Values joined by “and” are separate entries in the source; they are usually repeats but may differ in a detail not shown here. Identical values can stand only once. Like-named read-outs stand apart in the source and are kept apart here.

Experiments:
KRAS G13D = KRAS G13D (Homo sapiens (Human), UniProt P01116+P62937, G13D); assay: Ras-Raf disruption/FRET/MOA assay (BRAF RBD, Cyclophilin A); assay type: biochemical
KRAS G13D, sequence (P01116 other isoform, or with tags, fused parts or gaps G13D): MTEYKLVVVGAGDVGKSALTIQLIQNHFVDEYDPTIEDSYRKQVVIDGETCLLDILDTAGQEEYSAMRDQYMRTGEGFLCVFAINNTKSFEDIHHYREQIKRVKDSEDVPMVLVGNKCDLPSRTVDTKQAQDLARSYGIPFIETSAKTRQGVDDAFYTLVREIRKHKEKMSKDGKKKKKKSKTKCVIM
KRAS G13D, sequence (P62937 whole entry): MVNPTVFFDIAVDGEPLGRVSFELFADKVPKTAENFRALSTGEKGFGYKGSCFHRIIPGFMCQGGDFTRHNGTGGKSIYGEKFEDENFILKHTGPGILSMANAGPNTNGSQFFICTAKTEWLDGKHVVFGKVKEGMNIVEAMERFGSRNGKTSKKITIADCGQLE
Experimental: (§1) Compound is present in plate wells as a 10-point 3-fold dilution series starting at a final concentration of 30 μM. After incubation at 25° C. for 3 hours, a mixture of Anti-His Eu—W1024 and anti-GST allophycocyanin is then added to assay sample wells at final concentrations of 10 nM and 50 nM, respectively, and the reaction incubated for an additional 1.5 hours. […] Compounds that facilitate disruption of a Ras: RAF complex are identified as those eliciting a decrease in the TR-FRET ratio relative to DMSO control wells.
(§2) Disruption of B-Raf Ras-Binding Domain (BRAF^RBD) Interaction with K-Ras by Compounds of the Invention (Also Called a FRET Assay or an MOA Assay)
(§3) Note—The following protocol describes a procedure for monitoring disruption of K-Ras G12C (GMP-PNP) binding to BRAF^RBD by a compound of the invention. This protocol may also be executed substituting other Ras proteins or nucleotides.
(§4) The purpose of this biochemical assay was to measure the ability of test compounds to facilitate ternary complex formation between a nucleotide-loaded K-Ras isoform and Cyclophilin A; the resulting ternary complex disrupts binding to a BRAF^RBD construct, inhibiting K-Ras signaling through a RAF effector. Data is reported as IC50 values.
(§5) In assay buffer containing 25 mM HEPES pH 7.3, 0.002% Tween20, 0.1% BSA, 100 mM NaCl and 5 mM MgCl2, tagless Cyclophilin A, His6-K-Ras-GMPPNP, and GST-BRAF^RBD were combined in a 384-well assay plate at final concentrations of 25 μM, 12.5 nM and 50 nM, respectively. Compound was present in plate wells as a 10-point 3-fold dilution series starting at a final concentration of 30 μM. After incubation at 25° C. for 3 hours, a mixture of Anti-His Eu—W1024 and anti-GST allophycocyanin was then added to assay sample wells at final concentrations of 10 nM and 50 nM, respectively, and the reaction incubated for an additional 1.5 hours. […] Compounds that facilitate disruption of a K-Ras: RAF complex were identified as those eliciting a decrease in the TR-FRET ratio relative to DMSO control wells.

NRAS G12C = NRAS G12C (Homo sapiens (Human), UniProt P01111+P62937, G12C); assay: as above; assay type: biochemical
NRAS G12C, sequence (P01111 whole entry G12C): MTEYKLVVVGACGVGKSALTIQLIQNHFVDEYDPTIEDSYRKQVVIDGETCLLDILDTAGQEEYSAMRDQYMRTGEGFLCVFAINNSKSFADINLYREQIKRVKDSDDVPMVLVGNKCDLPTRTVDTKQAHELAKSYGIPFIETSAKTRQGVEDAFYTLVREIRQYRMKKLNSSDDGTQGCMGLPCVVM
NRAS G12C, sequence (P62937 whole entry): as the sequence (P62937 whole entry) above
Experimental: as §1, §2, §3, §4, §5

[1] = tested on: Capan-1 cells (K-Ras G12V); assay: CellTiter-Glo cell viability, Capan-1; assay type: cell-based, human; conditions: Homo sapiens, CAPAN-1, 120 h, read-out: Capan-1 Cell Viability IC50
How it was run: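 Five-day treatment of K-Ras mutant cells with directly dispensed compound; ATP-based luminescence endpoint. Percent of DMSO signal fit to four-parameter logistic curve.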

KRAS G12C = KRAS G12C (Homo sapiens (Human), UniProt P01116+P62937, G12C); assay: Ras-Raf disruption/FRET/MOA assay (BRAF RBD, Cyclophilin A); assay type: biochemical
KRAS G12C, sequence (P01116-2 other isoform, or with tags, fused parts or gaps G12C): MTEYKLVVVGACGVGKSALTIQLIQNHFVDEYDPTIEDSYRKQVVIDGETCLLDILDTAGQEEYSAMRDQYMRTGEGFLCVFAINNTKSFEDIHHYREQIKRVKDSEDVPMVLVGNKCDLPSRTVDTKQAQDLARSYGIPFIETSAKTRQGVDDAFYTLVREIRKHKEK
KRAS G12C, sequence (P62937 whole entry): as the sequence (P62937 whole entry) above
Experimental: as §1, §2, §3, §4, §5

KRAS G12D = KRAS G12D (Homo sapiens (Human), UniProt P01116+P62937, G12D); assay: as above; assay type: biochemical
KRAS G12D, sequence (P01116 other isoform, or with tags, fused parts or gaps G12D): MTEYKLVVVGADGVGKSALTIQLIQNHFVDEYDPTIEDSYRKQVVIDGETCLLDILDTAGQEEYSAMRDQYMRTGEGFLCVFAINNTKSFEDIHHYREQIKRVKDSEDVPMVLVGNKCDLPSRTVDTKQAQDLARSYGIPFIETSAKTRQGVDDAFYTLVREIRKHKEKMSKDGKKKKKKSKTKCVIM
KRAS G12D, sequence (P62937 whole entry): as the sequence (P62937 whole entry) above
Experimental: as §1, §2, §3, §4, §5

KRAS G12S = KRAS G12S (Homo sapiens (Human), UniProt P01116+P62937, G12S); assay: as above; assay type: biochemical
KRAS G12S, sequence (P01116 other isoform, or with tags, fused parts or gaps G12S): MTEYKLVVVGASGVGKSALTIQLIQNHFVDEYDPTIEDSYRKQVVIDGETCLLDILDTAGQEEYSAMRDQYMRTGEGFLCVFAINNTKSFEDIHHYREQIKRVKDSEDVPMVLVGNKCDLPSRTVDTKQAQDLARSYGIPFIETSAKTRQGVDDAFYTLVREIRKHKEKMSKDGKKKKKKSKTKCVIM
KRAS G12S, sequence (P62937 whole entry): as the sequence (P62937 whole entry) above
Experimental: as §1, §2, §3, §4, §5

KRAS G13C = KRAS G13C (Homo sapiens (Human), UniProt P01116+P62937, G13C); assay: as above; assay type: biochemical
KRAS G13C, sequence (P01116 other isoform, or with tags, fused parts or gaps G13C): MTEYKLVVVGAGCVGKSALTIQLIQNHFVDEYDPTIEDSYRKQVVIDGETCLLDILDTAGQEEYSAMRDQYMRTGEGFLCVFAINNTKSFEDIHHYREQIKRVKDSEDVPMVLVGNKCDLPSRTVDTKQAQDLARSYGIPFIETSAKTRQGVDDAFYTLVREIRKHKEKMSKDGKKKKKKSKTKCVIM
KRAS G13C, sequence (P62937 whole entry): as the sequence (P62937 whole entry) above
Experimental: as §1, §2, §3, §4, §5

KRAS WT = KRAS WT (Homo sapiens (Human), UniProt P01116+P62937); assay: as above; assay type: biochemical
KRAS WT, sequence (P01116 other isoform, or with tags, fused parts or gaps): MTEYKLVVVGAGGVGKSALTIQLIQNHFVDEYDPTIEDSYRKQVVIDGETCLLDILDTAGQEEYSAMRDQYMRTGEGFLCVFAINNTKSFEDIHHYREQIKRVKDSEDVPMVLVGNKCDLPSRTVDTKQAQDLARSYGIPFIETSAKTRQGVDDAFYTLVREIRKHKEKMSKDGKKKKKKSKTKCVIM
KRAS WT, sequence (P62937 whole entry): as the sequence (P62937 whole entry) above
Experimental: as §1, §2, §3, §4, §5

[2] = tested on: K-Ras G12C (NCI-H358 cells); assay: Potency assay: pERK in NCI-H358 cells; assay type: cell-based, human; conditions: Homo sapiens; NCI-H358 cells, 4 hours; read-out: pERK EC50 (H358 KRAS G12C)
How it was run: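 Cells plated the day before were exposed for 4 h at 37° C, 5% CO2 to a 10-point, 3-fold DMSO dilution series (10 mM top stock), in duplicate. Phospho-ERK was read by AlphaLISA SureFire Ultra or by In-Cell Western with DRAQ5 DNA stain, and IC50 came from a 4-parameter sigmoidal fit.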

KRAS G12V = KRAS G12V (Homo sapiens (Human), UniProt P01116+P62937, G12V); assay: Ras-Raf disruption/FRET/MOA assay (BRAF RBD, Cyclophilin A); assay type: biochemical
KRAS G12V, sequence (P01116 other isoform, or with tags, fused parts or gaps G12V): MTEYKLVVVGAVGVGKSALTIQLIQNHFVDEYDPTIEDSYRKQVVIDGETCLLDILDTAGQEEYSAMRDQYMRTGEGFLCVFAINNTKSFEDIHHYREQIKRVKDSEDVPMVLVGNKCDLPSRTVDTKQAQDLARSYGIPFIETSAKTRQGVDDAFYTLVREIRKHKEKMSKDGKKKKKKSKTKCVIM
KRAS G12V, sequence (P62937 whole entry): as the sequence (P62937 whole entry) above
Experimental: as §1, §2, §3, §4, §5

[3] = read-out: KRAS G13D FRET data IC50
[4] = read-out: NRAS G12C FRET data IC50
[5] = read-out: KRAS WT FRET data IC50

Structure (SMILES)	pIC50 (KRAS G13D; [3])	pIC50 (NRAS G12C; [4])	pIC50 ([1]; K-Ras G12V, 5-day treatment)	pIC50 (KRAS G12C; read-out: KRAS G12C FRET IC50)	pIC50 (KRAS G12D; read-out: KRAS G12D FRET IC50)	pIC50 (KRAS G12S; read-out: KRAS G12S FRET IC50)	pIC50 (KRAS G13C; read-out: KRAS G13C FRET IC50)	pIC50 (KRAS WT; [5])	pEC50 [2]	pIC50 (KRAS G12V; read-out: KRAS G12V FRET IC50)	pIC50 [1]	pIC50 (KRAS G12D; KRAS G12D FRET IC50)	pIC50 (KRAS G12S; KRAS G12S FRET IC50)	pIC50 (KRAS G12V; KRAS G12V FRET IC50)	pIC50 (KRAS G13C; KRAS G13C FRET IC50)	pIC50 (KRAS G13D; KRAS G13D FRET data IC50)	pIC50 (KRAS WT; KRAS WT FRET data IC50)	pIC50 (NRAS G12C; NRAS G12C FRET data IC50)	pIC50 (KRAS G12C; KRAS G12C FRET IC50)
CCn1c(-c2cnccc2COC)c2c3cc(ccc31)-c1cc(O)cc(c1)C[C@H](NC(=O)[C@H](C(C)C)N(C)C(=O)[C@H]1CCN(C(C)C)C1)C(=O)N1CCC[C@H](N1)C(=O)OCC(C)(C)C2 [Compound A41]	7.00 to 8.00	6.00 to 7.00	–	–	–	–	–	–	–	–	–	–	–	–	–	–	–	–	–
CCn1c(-c2cccnc2COC)c2c3cc(ccc31)-c1cc(O)cc(c1)C[C@H](NC(=O)[C@H](C(C)C)N(C)C(=O)[C@H](N)CCCNC(=N)N)C(=O)N1CCC[C@H](N1)C(=O)OCC(C)(C)C2 [Compound A48]	6.00 to 7.00	–	–	–	–	–	–	–	–	–	–	–	–	–	–	–	–	–	–
CCn1c(-c2cccnc2[C@H](C)OC)c2c3cc(ccc31)-c1cc(O)cc(c1)C[C@H](NC(=O)[C@H](C(C)C)N(C)C(=O)[C@@H]1C[C@@H]1F)C(=O)N1CCC[C@H](N1)C(=O)OCC(C)(C)C2 [Compound A160]	6.00 to 7.00	7.00 to 8.00	6.00 to 7.00	7.00 to 8.00	6.00 to 7.00	6.00 to 7.00	7.00 to 8.00	7.00 to 8.00	–	–	–	–	–	–	–	–	–	–	–
CCn1c(-c2cccnc2[C@H](C)OC)c2c3cc(ccc31)-c1cc(O)cc(c1)C[C@H](NC(=O)[C@H](C(C)C)N(C)C(=O)[C@H]1C[C@H]1F)C(=O)N1CCC[C@H](N1)C(=O)OCC(C)(C)C2 [Compound A162]	7.00 to 8.00	7.00 to 8.00	–	7.00 to 8.00	6.00 to 7.00	7.00 to 8.00	7.00 to 8.00	7.00 to 8.00	> 5.30	–	–	–	–	–	–	–	–	–	–
CCn1c(-c2cccnc2[C@H](C)OC)c2c3cc(ccc31)-c1cc(O)cc(c1)C[C@H](NC(=O)C(C)Cc1ccncc1)C(=O)N1CCC[C@H](N1)C(=O)OCC(C)(C)C2 (stereo partly drawn) [Compound A179]	6.00 to 7.00 and 5.00 to 6.00	5.00 to 6.00	–	6.00 to 7.00	5.00 to 6.00	5.00 to 6.00	6.00 to 7.00	6.00 to 7.00	> 5.30	5.00 to 6.00	–	–	–	–	–	–	–	–	–
CCn1c(-c2cccnc2[C@H](C)OC)c2c3cc(ccc31)-c1cc(O)cc(c1)C[C@H](NS(=O)(=O)N1CCC1)C(=O)N1CCC[C@H](N1)C(=O)OCC(C)(C)C2 [Compound A189]	< 5.00	< 5.00	< 5.00	–	< 5.00	< 5.00	< 5.00	< 5.00	–	< 5.00	–	–	–	–	–	–	–	–	–
CCn1c(-c2cccnc2[C@H](C)OC)c2c3cc(ccc31)-c1cc(O)cc(c1)C[C@H](NS(=O)(=O)C1CS(=O)(=O)C1)C(=O)N1CCC[C@H](N1)C(=O)OCC(C)(C)C2 [Compound A191]	< 5.00	< 5.00	< 5.00	–	< 5.00	< 5.00	< 5.00	< 5.00	–	< 5.00	–	–	–	–	–	–	–	–	–
CCn1c(-c2cccnc2[C@H](C)OC)c2c3cc(ccc31)-c1cc(O)cc(c1)C[C@H](NS(=O)(=O)c1ccc(O)cc1)C(=O)N1CCC[C@H](N1)C(=O)OCC(C)(C)C2 [Compound A195]	< 5.00	< 5.00	< 5.00	–	< 5.00	< 5.00	< 5.00	< 5.00	–	< 5.00	–	–	–	–	–	–	–	–	–
CCn1c(-c2cccnc2[C@H](C)OC)c2c3cc(ccc31)-c1cc(O)cc(c1)C[C@H](NS(=O)(=O)C1CC1)C(=O)N1CCC[C@H](N1)C(=O)OCC(C)(C)C2 [Compound A196]	< 5.00	< 5.00	< 5.00	–	< 5.00	< 5.00	< 5.00	< 5.00	–	< 5.00	–	–	–	–	–	–	–	–	–
CCn1c(-c2cccnc2[C@H](C)OC)c2c3cc(ccc31)-c1cc(O)cc(c1)C[C@H](NS(=O)(=O)c1cn(C)c(C)n1)C(=O)N1CCC[C@H](N1)C(=O)OCC(C)(C)C2 [Compound A197]	< 5.00	–	< 5.00	–	< 5.00	< 5.00	–	–	> 5.30	< 5.00	–	–	–	–	–	–	–	–	–
CCn1c(-c2cccnc2[C@H](C)OC)c2c3cc(ccc31)-c1cc(O)cc(c1)C[C@H](NS(=O)(=O)c1ccc(OC)cc1OC)C(=O)N1CCC[C@H](N1)C(=O)OCC(C)(C)C2 [Compound A198]	–	–	–	–	–	–	–	–	–	–	< 5.00	< 5.00	< 5.00	< 5.00	< 5.00	< 5.00	< 5.00	< 5.00	–
CCn1c(-c2cccnc2[C@H](C)OC)c2c3cc(ccc31)-c1cc(O)cc(c1)C[C@H](NC(=O)N1CCOCC1)C(=O)N1CCC[C@H](N1)C(=O)OCC(C)(C)C2 [Compound A199]	–	–	–	–	–	–	–	–	–	–	< 5.00	< 5.00	< 5.00	–	5.00 to 6.00	5.00 to 6.00	5.00 to 6.00	5.00 to 6.00	5.00 to 6.00
CCn1c(-c2cccnc2[C@H](C)OC)c2c3cc(ccc31)-c1cc(O)cc(c1)C[C@H](NS(=O)(=O)CC1CC1)C(=O)N1CCC[C@H](N1)C(=O)OCC(C)(C)C2 [Compound A200]	< 5.00	–	–	–	< 5.00	< 5.00	–	–	–	< 5.00	5.00 to 6.00	–	–	–	–	–	–	–	–
CCn1c(-c2cnccc2COC)c2c3cc(ccc31)-c1cc(O)cc(c1)C[C@H](NC(=O)[C@H](C(C)C)N(C)C(=O)N1CCOCC1)C(=O)N1CCC[C@H](N1)C(=O)OCC(C)(C)C2 [Compound A257]	6.00 to 7.00	6.00 to 7.00	–	6.00 to 7.00	5.00 to 6.00	6.00 to 7.00	6.00 to 7.00	6.00 to 7.00	> 5.30	6.00 to 7.00	–	–	–	–	–	–	–	–	–
CCn1c(-c2cccnc2[C@H](C)OC)c2c3cc(ccc31)-c1cc(O)cc(c1)C[C@H](NC(=O)[C@H](C(C)C)N(C)C(=O)[C@@H]1CN(C(=O)OC)C[C@@H]1C)C(=O)N1CCC[C@H](N1)C(=O)OCC(C)(C)C2 [Compound A325]	7.00 to 8.00	–	7.00 to 8.00	–	7.00 to 8.00	7.00 to 8.00	–	7.00 to 8.00	–	–	–	–	–	–	–	–	–	–	–
CCn1c(-c2cccnc2[C@H](C)OC)c2c3cc(ccc31)-c1cccc(c1)C[C@H](NC(=O)[C@H](C(C)C)N(C)C(=O)[C@H]1OCC[C@H]1c1ccccc1)C(=O)N1CCC[C@H](N1)C(=O)OCC(C)(C)C2 [Compound A429]	< 5.00	5.00 to 6.00	–	5.00 to 6.00	< 5.00	< 5.00	< 5.00	5.00 to 6.00	–	< 5.00	–	–	–	–	–	–	–	–	–
CCn1c(-c2cccnc2[C@H](C)OC)c2c3cc(ccc31)-c1cc(O)cc(c1)C[C@H](NC(=O)[C@H](C(C)C)N(C)C(=O)[C@@H]1CCN(C(=O)OC)[C@@H]1c1ccccc1)C(=O)N1CCC[C@H](N1)C(=O)OCC(C)(C)C2 [Compound A501]	7.00 to 8.00	–	6.00 to 7.00	–	7.00 to 8.00	–	–	7.00 to 8.00	> 5.30	–	–	–	–	–	–	–	–	–	–
